Results on 20 molecules are retold here after PubChem BioAssay AID328 (DTP/NCI, 2004).

This test relates to BDF1 mice, P388 leukemia ip, median survival T/C. In words: NCI In Vivo Anticancer Drug Screen. Data for tumor model P388 Leukemia (intraperitoneal) in B6D2F1 (BDF1) mice. The conditions noted are these: endpoint: median survival time, higher = longer survival. The essentials:
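Antitumour effect was judged in vivo: survival in drug-treated mice, normalised to that of vehicle-dosed controls, gives the reported T/C.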

Where [1] appears, read: dose: 100.0 mg/kg/injection, schedule: Q04DX003 (ip), vehicle: Klucel (hydroxypropylcellulose) (HPC).
[2] abbreviates: dose: 200.0 mg/kg/injection, schedule: Q04DX003 (ip), vehicle: Klucel (hydroxypropylcellulose) (HPC).
Where [3] appears, read: dose: 400.0 mg/kg/injection, schedule: Q04DX003 (ip), vehicle: Klucel (hydroxypropylcellulose) (HPC).
[4] abbreviates: dose: 25.0 mg/kg/injection, schedule: Q04DX003 (ip), vehicle: saline.
[5] abbreviates: dose: 100.0 mg/kg/injection, schedule: Q04DX003 (ip), vehicle: saline.
[6] abbreviates: dose: 50.0 mg/kg/injection, schedule: Q01DX009 (ip), vehicle: saline with Tween-80.
Setting [7] is: dose: 100.0 mg/kg/injection, schedule: Q01DX009 (ip), vehicle: saline with Tween-80.
Setting [8] is: dose: 200.0 mg/kg/injection, schedule: Q01DX009 (ip), vehicle: saline with Tween-80.
The mark [9] stands for this setting: dose: 12.5 mg/kg/injection, schedule: Q01DX009 (ip), vehicle: saline with Tween-80.
Where [10] appears, read: dose: 25.0 mg/kg/injection, schedule: Q01DX009 (ip), vehicle: saline with Tween-80.
Setting [11] is: dose: 200.0 mg/kg/injection, schedule: Q01DX009 (ip), vehicle: saline.
Setting [12] is: dose: 50.0 mg/kg/injection, schedule: Q01DX009 (ip), vehicle: saline.

Structures are written as SMILES. Where “and” joins values, the source holds several entries; their conditions need not be identical. Equal entries are not always repeated. Toxic doses and inconclusive results are not listed.

For the molecule `CCC(=O)OC1CC2C3CCC4=CC(=O)CCC4(C)C3CCC2(C)C1OC(=O)CC` (centres undefined), the T/C under setting [1] was 100 % of control; the T/C (dose: 200.0 mg/kg/injection, schedule: Q01DX009 (ip), vehicle: Klucel (hydroxypropylcellulose) (HPC)) is 109 % of control; the T/C under setting [2] is 104 % of control; the T/C (dose: 400.0 mg/kg/injection, schedule: Q01DX009 (ip), vehicle: Klucel (hydroxypropylcellulose) (HPC)) was 91 % of control and 122 % of control; the T/C under setting [3] was 104 % of control.
On to `N#Cc1cnn(C(N)=S)c1N`, for which the T/C was 104 % of control under setting [4]; 104 % of control (dose: 50.0 mg/kg/injection, schedule: Q04DX003 (ip), vehicle: saline); 100 % of control under setting [5].
Consider `CC(C)Cc1c(N)nc(=S)[nH]c1C(=O)O`, for which the T/C runs as follows: (dose: 50.0 mg/kg/injection, schedule: Q04DX003 (ip), vehicle: Klucel (hydroxypropylcellulose) (HPC)) 89 % of control; under setting [1], 107 % of control; under setting [2], 96 % of control.
Take `CN(C)c1ccc2c(N(C)C)cc(N(C)C)nc2c1`: the T/C runs as follows: (dose: 12.5 mg/kg/injection, schedule: Q01DX009 (ip), vehicle: Klucel (hydroxypropylcellulose) (HPC)) 111 % of control; (dose: 25.0 mg/kg/injection, schedule: Q01DX009 (ip), vehicle: Klucel (hydroxypropylcellulose) (HPC)) 89 % of control; (dose: 50.0 mg/kg/injection, schedule: Q01DX009 (ip), vehicle: Klucel (hydroxypropylcellulose) (HPC)) 120 % of control.
As to `Nc1nc(C(F)(F)F)c(CCCCc2ccccc2)c(=O)[nH]1`, the T/C is 111 % of control (dose: 100.0 mg/kg/injection, schedule: Q01DX001 (ip), vehicle: Klucel (hydroxypropylcellulose) (HPC)); 117 % of control (dose: 200.0 mg/kg/injection, schedule: Q01DX001 (ip), vehicle: Klucel (hydroxypropylcellulose) (HPC)); 98 % of control (dose: 400.0 mg/kg/injection, schedule: Q01DX001 (ip), vehicle: Klucel (hydroxypropylcellulose) (HPC)).
Turning to `C[C@]12CCCC[C@@H]1CC[C@@H]1[C@@H]2[C@@H](O)C[C@@]2(C)[C@H]1CC[C@]2(C)O`, the T/C reads like this: under setting [6], 104 % of control; under setting [7], 95 % of control; under setting [8], 100 % of control.
As for `CC1CCC(C)C1NC1=NCCO1` (centres undefined), the T/C was 109 % of control (dose: 6.25 mg/kg/injection, schedule: Q01DX009 (ip), vehicle: saline with Tween-80); 100 % of control under setting [9]; 104 % of control under setting [10].
In the case of `COCCOC(C)C(=O)C(O)S(=O)(=O)O` (centres undefined), the T/C reads like this: (dose: 132.0 mg/kg/injection, schedule: Q01DX009 (ip), vehicle: saline) 150 % of control; under setting [11], 155 % of control; (dose: 300.0 mg/kg/injection, schedule: Q01DX009 (ip), vehicle: saline) 155 % of control.
Take `C#CCSc1ncnc2nc[nH]c12`: the T/C by setting is: under setting [5], 100 % of control; (dose: 200.0 mg/kg/injection, schedule: Q04DX003 (ip), vehicle: saline) 100 % of control.
In the case of `COC(=O)c1ccc(N)c(C(Sc2ccccc2)c2ccccc2)c1` (centres undefined), the T/C was 98 % of control (dose: 50.0 mg/kg/injection, schedule: Q04DX002 (ip), vehicle: saline with Tween-80); 90 % of control (dose: 100.0 mg/kg/injection, schedule: Q04DX002 (ip), vehicle: saline with Tween-80); 99 % of control (dose: 200.0 mg/kg/injection, schedule: Q04DX002 (ip), vehicle: saline with Tween-80).
Take `C=CC(=O)NC(C)C(=O)O` (centres undefined): the T/C is, setting by setting: under setting [12], 105 % of control; (dose: 100.0 mg/kg/injection, schedule: Q01DX009 (ip), vehicle: saline) 105 % of control; under setting [11], 100 % of control.
As for `COc1ccc(/C=N/n2c(C)cc(C)c(C#N)c2=O)c(OC)c1OC`, the T/C under setting [7] is 100 % of control; the T/C under setting [1] was 115 % of control; the T/C under setting [8] is 86 % of control; the T/C under setting [2] is 100 % of control; the T/C (dose: 400.0 mg/kg/injection, schedule: Q01DX009 (ip), vehicle: saline with Tween-80) was 113 % of control; the T/C under setting [3] is 100 % of control.
Turning to `OCC#CCO`, the T/C is 95 % of control (dose: 12.0 mg/kg/injection, schedule: Q01DX001 (ip), vehicle: saline); 113 % of control (dose: 25.0 mg/kg/injection, schedule: Q01DX001 (ip), vehicle: saline); 109 % of control (dose: 50.0 mg/kg/injection, schedule: Q01DX001 (ip), vehicle: saline).
With `CNC(=N)c1ccc(NC(=N)c2ccc(NC(=O)Nc3ccc(C(=N)Nc4ccc(C(=N)NC)cc4)cc3)cc2)cc1`, the T/C is, setting by setting: (dose: 6.0 mg/kg/injection, schedule: Q01DX009 (ip), vehicle: saline with Tween-80) 216 % of control; (dose: 8.0 mg/kg/injection, schedule: Q01DX009 (ip), vehicle: saline with Tween-80) 172 % of control and 214 % of control; (dose: 12.0 mg/kg/injection, schedule: Q01DX009 (ip), vehicle: saline with Tween-80) 241 % of control and 204 % of control and 214 % of control; (dose: 12.5 mg/kg/injection, schedule: Q04DX003 (ip), vehicle: saline with Tween-80) 122 % of control.
Consider `CCN(C)c1ccc(/C=C/c2ccnc3ccccc23)cc1`, for which the T/C by setting is: under setting [9], 115 % of control; under setting [10], 91 % of control; under setting [6], 99 % of control.
Turning to `O=C(Nc1cccc2ccccc12)N1c2ccccc2SC12CCCC2`, under setting [7], the T/C was 91 % of control.
`O=C(OC[P+](c1ccccc1)(c1ccccc1)c1ccccc1)c1ccccc1`: the T/C is, setting by setting: (dose: 3.13 mg/kg/injection, schedule: Q01DX009 (ip), vehicle: saline) 112 % of control; (dose: 25.0 mg/kg/injection, schedule: Q01DX009 (ip), vehicle: saline) 122 % of control; under setting [12], 91 % of control.
Regarding `CCCCCCCCNc1ccccc1`, the T/C is 87 % of control (dose: 100.0 mg/kg/injection, schedule: Q01DX001 (ip), vehicle: saline sonified) and 91 % of control (dose: 400.0 mg/kg/injection, schedule: Q01DX001 (ip), vehicle: saline sonified).
As for `Cc1[nH]ccc2c(C)c3nc4ccccc4c3cc12`, the T/C was 116 % of control (dose: 0.39 mg/kg/injection, schedule: Q01DX009 (ip), vehicle: saline with Tween-80); 100 % of control (dose: 0.59 mg/kg/injection, schedule: Q01DX009 (ip), vehicle: saline with Tween-80); 150 % of control (dose: 0.9 mg/kg/injection, schedule: Q01DX009 (ip), vehicle: saline with Tween-80); 160 % of control (dose: 1.35 mg/kg/injection, schedule: Q01DX009 (ip), vehicle: saline with Tween-80); 168 % of control (dose: 4.12 mg/kg/injection, schedule: Q01DX009 (ip), vehicle: saline with Tween-80); 177 % of control (dose: 8.25 mg/kg/injection, schedule: Q01DX009 (ip), vehicle: saline with Tween-80). In addition, the T/C is 163 % of control (dose: 16.5 mg/kg/injection, schedule: Q01DX009 (ip), vehicle: saline with Tween-80); 165 % of control and 168 % of control under setting [10]; 225 % of control and 154 % of control (dose: 37.5 mg/kg/injection, schedule: Q01DX009 (ip), vehicle: saline with Tween-80).
Take `Nc1cc(=O)[nH]c(O)c1C(=O)O`: the T/C (dose: 6.25 mg/kg/injection, schedule: Q04DX003 (ip), vehicle: saline) is 109 % of control; the T/C (dose: 12.5 mg/kg/injection, schedule: Q04DX003 (ip), vehicle: saline) was 100 % of control; the T/C under setting [4] was 100 % of control; the T/C (dose: 35.0 mg/kg/injection, schedule: Q04DX003 (ip), vehicle: saline) is 100 % of control; the T/C (dose: 55.0 mg/kg/injection, schedule: Q04DX003 (ip), vehicle: saline) was 113 % of control; the T/C (dose: 80.0 mg/kg/injection, schedule: Q04DX003 (ip), vehicle: saline) is 100 % of control. Besides, the T/C runs as follows: (dose: 120.0 mg/kg/injection, schedule: Q04DX003 (ip), vehicle: saline) 104 % of control; (dose: 180.0 mg/kg/injection, schedule: Q04DX003 (ip), vehicle: saline) 86 % of control; (dose: 270.0 mg/kg/injection, schedule: Q04DX003 (ip), vehicle: saline) 100 % of control.
